Assay results published in patent US5728830A, “Farnesyltransferase inhibitor” (Kyowa Hakko Kogyo Co., Ltd., priority 1993, dated 1998).
Values after ≈ are worked out from the molar mass of the structure shown. Where two headings read alike, the source gives them in different places.

How the values were obtained:
[1] = molecular target: T1, farnesyltransferase (FTase) (Bos taurus, UniProt P29702+P49355); test: Farnesyltransferase Inhibitory Activity ([3H]SPA FTase assay, farnesylation of C-terminal peptide of lamin B); type: biochemical; settings: bovine brain crude enzyme
T1 construct: An extract of minced bovine brain was subjected to column chromatography on DEAE-Sephacel (Pharmacia); from tissue; host or cells: bovine brain
Method: Farnesyltransferase Inhibitory Activity
An extract of minced bovine brain was subjected to column chromatography on DEAE-Sephacel (Pharmacia). The active fraction was concentrated by ultrafiltration and dialyzed against a mixture of 20 mM Tris-HCl (pH 8.0), 50 mM NaCl, […], 1 mM dithiothreitol (DTT), and 0.2 mM phenylmethylsulfonyl fluoride (PMSF). The resulting dialysate was used as a crude enzyme liquid of farnesyltransferase (FTase). The measurement of activity was carried out by means of an FTase [^3 H]SPA enzyme assay kit (Amersham) using the enzyme obtained by the above method.

[2] = test system: BALB 3T3/H-ras cells; test: Anticell Activity (growth inhibition of BALB 3T3 cells transformed by the oncogene H-ras, Giemsa staining); type: cell-based; settings: Mus musculus, 72 hours, read-out: IC50 Anti-BALB 3T3/H-ras Cell Activity
Method: The anticell activity was measured using BALB 3T3 cells transformed by the oncogene H-ras (hereinafter referred to as BALB 3T3/H-ras cells).
BALB 3T3/H-ras cells were suspended in a DME medium (Nissui) containing 10% bovine fetal serum (hereinafter referred to as medium A) to a cell concentration of 3.0×10^4 cells/ml. Each well of a 96-well microtiter plate was inoculated with 0.1 ml of the cell suspension, and the system was cultured in a CO2 gas incubator at 37° C. for 20 hours. To each well was added 0.1 ml of a sample (test compound) diluted appropriately with medium A, followed by culturing in the CO2 gas incubator at 37° C. for 72 hours. The culture supernatant was removed, and the residue was washed once with physiological saline and treated with 0.1 ml of methanol for 10 minutes to immobilize the cells. The cells were stained with 0.1 ml of a Giemsa staining solution [Giemsa staining stock solution Merck Art9204 (Merck & Co., Inc.):physiological saline=1:10] for 5 minutes. The staining solution was removed, and the residue was washed once with 0.2 ml of water. The pigment was extracted with 0.2 ml of 0.1N hydrochloric acid, and the absorbance at 620 nm was measured with a microplate reader.

[3] = test system: isogenic tumor in K-BALB mice; test: Antitumor Activity on Isogenic Tumor System in K-BALB Mice; type: in vivo; settings: intraperitoneal, 5 consecutive days from 7th day after transplantation, BALB/c mouse
Method: Antitumor Activity on Isogenic Tumor System in K-BALB Mice
The antitumor activity on an isogenic tumor system in K-BALB mice was measured according to the method described in Proc. Natl. Acad. Sci., 90, 2281 (1993). That is, an isogenic tumor in K-BALB mice was resected from a donor mouse, and a 2×2×2 (8) mm^3 tumor piece was transplanted to the subcutaneous site of the abdomen of a BALB/c mouse by means of a trocar. After the graft survival was confirmed on the 7th day from the transplantation, a test compound was intraperitoneally administered for 5 consecutive days from the same day. The longer diameter and shorter diameter of the tumor were measured with a sliding gauge, and the tumor volume was calculated according to the formula; (longer diameter)×(shorter diameter)^2 /2 [Cancer Chemother. Rep., Part III, 3, 1 (1972)]. The antitumor effect was evaluated in terms of T/C, the ratio of the tumor volume of a test compound-treated group (T) to that of an untreated group (C).

[4] = test system: Bacillus subtilis No. 10707; test: Antibacterial Activity, agar dilution method, Bacillus subtilis; type: cell-based
Method: (§1) The antibacterial activity was measured by the agar dilution method using a medium (pH 7) prepared by dissolving 3 g of Bacto-tryptone (Difco), 3 g of meat extract, 1 g of yeast extract, 1 g of glucose, and 16 g of agar in 1 liter of water. The antibacterial activity of Compounds I are expressed in terms of minimum growth inhibitory concentration (MIC).
BS; Bacillus subtilis No. 10707

[5] = test system: Enterococcus faecium ATCC 10541; test: Antibacterial Activity, agar dilution method, Enterococcus faecium; type: cell-based
Method: as §1
EF; Enterococcus faecium ATCC 10541

[6] = test system: Candida albicans ATCC 10231; test: Antibacterial Activity, agar dilution method, Candida albicans; type: cell-based
Method: as §1
CA; Candida albicans ATCC 10231

[7] = Bacillus subtilis No. 10707, agar dilution, pH 7, read-out: MIC BS
[8] = ATCC10231, Candida albicans ATCC 10231, agar dilution, pH 7, read-out: MIC CA
[9] = Bacillus subtilis, NO.10707, pH 7, read-out: MIC BS
[10] = Candida albicans, ATCC10231, pH 7, read-out: MIC CA
[11] = Enterococcus faecium, ATCC10541, pH 7, read-out: MIC EF

## CC(=O)SC1C(=O)N(c2ccccc2)C(SC(C)=O)C(=O)N1C (centres unmarked) [Compound I-1]
[1]
  IC50: 5 µM
[2]
  IC50: 200 nM

## COc1ccccc1N1C(=O)C(SC(C)=O)N(C)C(=O)C1SC(C)=O (centres unmarked) [Compound I-2]
[1]
  IC50: 9 µM
[2]
  IC50: 500 nM

## COc1ccc(Br)cc1N1C(=O)C(SC(C)=O)N(C)C(=O)C1SC(C)=O (centres unmarked) [Compound I-3]
[1]
  IC50: 9 µM
[2]
  IC50: 1500 nM

## CC(=O)SC1C(=O)N(c2ccccc2)C(SC(C)=O)C(=O)N1c1ccccc1 (centres unmarked) [Compound I-4]
[1]
  IC50: 12 µM
[2]
  IC50: 900 nM
[3]; 5.0 mg/kg
  T/C (ratio of tumor volume, treated to untreated): 0.41

## COCN1C(=O)C(SC(C)=O)N(COC)C(=O)C1SC(C)=O (centres unmarked) [Compound I-5]
[1]
  IC50: 8 µM
[2]
  IC50: 400 nM

## CC(=O)SC1C(=O)N(Cc2ccccc2)C(SC(C)=O)C(=O)N1Cc1ccccc1 (centres unmarked) [Compound I-6]
[1]
  IC50: 7 µM
[2]
  IC50: 4000 nM
[4]; [7]
  MIC: 21 µg/mL (≈ 47.5 µM)
[5]; ATCC10541, Enterococcus faecium ATCC 10541, agar dilution, pH 7, read-out: MIC EF
  MIC: 42 µg/mL (≈ 94.9 µM)
[6]; [8]
  MIC: 10 µg/mL (≈ 22.6 µM)

## CN1C(=O)C2SSC1C(=O)N2c1ccccc1 (centres unmarked) [Compound I-7]
[1]
  IC50: 60 µM
[2]
  IC50: 200 nM

## O=C1C2SSC(C(=O)N2c2ccccc2)N1c1ccccc1 [Compound I-8]
[1]
  IC50: 10 µM
[2]
  IC50: 700 nM

## O=C(SC1C(=O)N(c2ccccc2)C(SC(=O)c2ccccc2)C(=O)N1c1ccccc1)c1ccccc1 (centres unmarked) [Compound I-9]
[1]
  IC50: 9 µM
[2]
  IC50: 3000 nM

## O=C(Oc1ccccc1)SC1C(=O)N(c2ccccc2)C(SC(=O)Oc2ccccc2)C(=O)N1c1ccccc1 (centres unmarked) [Compound I-10]
[1]
  IC50: 25 µM
[2]
  IC50: 1000 nM
[6]; [8]
  MIC: 42 µg/mL (≈ 73.6 µM)

## CN1C(=O)C2SSC1(COCc1ccccc1)C(=O)N2c1ccccc1 (centres unmarked) [Compound I-11]
[1]
  IC50: 3 µM
[2]
  IC50: 3000 nM
[4]; [9]
  MIC: 7.3 µg/mL (≈ 18.9 µM)
[6]; [10]
  MIC: 0.46 µg/mL (≈ 1.19 µM)

## CN1C(=O)C2(COCc3ccccc3)SSC1(COCc1ccccc1)C(=O)N2c1ccccc1 (centres unmarked) [Compound I-12]
[1]
  IC50: 3 µM
[2]
  IC50: 1000 nM
[4]; [9]
  MIC: 42 µg/mL (≈ 82.9 µM)
[6]; [10]
  MIC: 42 µg/mL (≈ 82.9 µM)

## CN1C(=O)C2SSC1(CO)C(=O)N2c1ccccc1 (centres unmarked) [Compound I-13]
[1]
  IC50: 5 µM
[2]
  IC50: 100 nM
[4]; [9]
  MIC: 0.041 µg/mL (≈ 0.138 µM)
[5]; [11]
  MIC: 0.16 µg/mL (≈ 0.54 µM)
[3]; 0.75 mg/kg
  T/C (ratio of tumor volume, treated to untreated): 0.44
[6]; [10]
  MIC: 42 µg/mL (≈ 142 µM)

## COc1ccccc1N1C(=O)C2(CO)SSC1C(=O)N2C (centres unmarked) [Compound I-14]
[1]
  IC50: 6 µM
[2]
  IC50: 300 nM
[4]; [9]
  MIC: 7.3 µg/mL (≈ 22.4 µM)

## COc1ccccc1N1C(=O)C2(CO)SSC1(CO)C(=O)N2C (centres unmarked) [Compound I-15]
[1]
  IC50: 7 µM
[2]
  IC50: 300 nM
[4]; [9]
  MIC: 0.33 µg/mL (≈ 0.926 µM)
[5]; [11]
  MIC: 1.3 µg/mL (≈ 3.65 µM)

## CC(=O)OCC1(SC(C)=O)C(=O)N(c2ccccc2)C(SC(C)=O)C(=O)N1C (centres unmarked) [Compound I-16]
[1]
  IC50: 20 µM
[2]
  IC50: 1700 nM
[4]; [9]
  MIC: 5.2 µg/mL (≈ 12.2 µM)
[5]; [11]
  MIC: 42 µg/mL (≈ 98.9 µM)

## COCN1C(=O)C(SC(=O)Oc2ccccc2)N(COC)C(=O)C1SC(=O)Oc1ccccc1 (centres unmarked) [Compound I-17]
[1]
  IC50: 5 µM
[2]
  IC50: 300 nM
[4]; [7]
  MIC: 42 µg/mL (≈ 82.9 µM)

## O=C1C2SSC(C(=O)N2Cc2ccccc2)N1Cc1ccccc1 [Compound I-19]
[1]
  IC50: 7 µM
[4]; [9]
  MIC: 83 µg/mL (≈ 233 µM)
[5]; [11]
  MIC: 83 µg/mL (≈ 233 µM)
[6]; [10]
  MIC: 2.6 µg/mL (≈ 7.29 µM)

## CCOC(=O)SC1C(=O)N(c2ccccc2)C(SC(=O)OCC)C(=O)N1c1ccccc1 (centres unmarked) [Compound I-20]
[1]
  IC50: 45 µM

## CN1C(=O)C2(CO)SSC1(CO)C(=O)N2c1ccccc1 (centres unmarked) [Compound I-21]
[1]
  IC50: 3 µM
[2]
  IC50: 200 nM
[4]; [9]
  MIC: 21 µg/mL (≈ 64.3 µM)
[5]; [11]
  MIC: 0.33 µg/mL (≈ 1.01 µM)
